Measurements: patent US9204653B2, “5-fluoro pyrimidine derivatives” (DOW AGROSCIENCES LLC, priority 2008, dated 2015)
Where two headings read alike, the source gives them in different places.

System: Mycosphaerella graminicola; Anamorph: Septoria tritici; Bayer Code SEPTTR
Assay: Leaf blotch of wheat, foliar fungicide treatment, one day protectant (1DP) or three day curative (3DC)
Type: in vivo, Septoria tritici on wheat plants (variety Yuma)
Details: Zymoseptoria tritici; for pest or weed control at 50 ppm / pest or weed control at 200 ppm: % disease control rating
[1] = 24 h, one day protectant, 25 ppm, rating of percent disease control, read-out: SETTTR 1DP 25 ppm
[2] = 24 h, one day protectant, rating of percent disease control, read-out: SEPTTR 1DP 100 ppm
[3] = 72 h, three day curative, 25 ppm, rating of percent disease control, read-out: SEPTTR 3DC 25 ppm
[4] = 72 h, three day curative, rating of percent disease control, read-out: SEPTTR 3DC 100 ppm
[5] = 24 h, one day protectant (1DP), 25 ppm, percent disease control rating, read-out: SETTTR 1DP 25 ppm
[6] = 24 h, one day protectant (1DP), percent disease control rating, read-out: SEPTTR 1DP 100 ppm
[7] = 72 h, three day curative (3DC), 25 ppm, percent disease control rating, read-out: SEPTTR 3DC 25 ppm
[8] = 72 h, three day curative (3DC), percent disease control rating, read-out: SEPTTR 3DC 100 ppm
[9] = 24 h, one day protectant (1DP), 25 ppm (first 1DP column), percent control rating, read-out: SETTTR 1DP 25 ppm
[10] = 24 h, one day protectant (1DP), 25 ppm as printed (second 1DP column), percent control rating, read-out: SETTTR 1DP 25 ppm
[11] = 72 h, three day curative (3DC), 25 ppm, percent control rating, read-out: SEPTTR 3DC 25 ppm
[12] = 72 h, three day curative (3DC), percent control rating, read-out: SEPTTR 3DC 100 ppm
[13] = 24 h, one day protectant (1DP), 25 ppm, rating of percent disease control, read-out: SETTTR 1DP 25 ppm
[14] = 24 h, one day protectant (1DP), rating of percent disease control, read-out: SEPTTR 1DP 100 ppm
[15] = 72 h, three day curative (3DC), 25 ppm, rating of percent disease control, read-out: SEPTTR 3DC 25 ppm
[16] = 72 h, three day curative (3DC), rating of percent disease control, read-out: SEPTTR 3DC 100 ppm

Fc1ccc(COc2ncc(F)c(-n3ccnc3)n2)cc1 [Compound 688]
pest or weed control at 25 ppm [1]: 76 to 100% | pest or weed control at 100 ppm [2]: 76 to 100% | pest or weed control at 25 ppm [3]: 76 to 100% | pest or weed control at 100 ppm [4]: 76 to 100%

CNC(=O)/C(=N/OC)c1ccccc1COc1ncc(F)c(N)n1 [Compound 96]
pest or weed control at 25 ppm [5]: 0 to 25% | pest or weed control at 100 ppm [6]: 0 to 25% | pest or weed control at 25 ppm [7]: 0 to 25% | pest or weed control at 100 ppm [8]: 0 to 25%

O=CNc1nc(OCc2ccccc2)ncc1F [Compound 961, N-(2-(Benzyloxy)-5-fluoropyrimidin-4-yl)formamide]
pest or weed control at 25 ppm [9]: 76 to 100% | pest or weed control at 25 ppm [10]: 76 to 100% | pest or weed control at 25 ppm [11]: 76 to 100% | pest or weed control at 100 ppm [12]: 76 to 100%

COc1ncc(F)c(NNc2c(Cl)cccc2Cl)n1 [Compound 1055]
pest or weed control at 25 ppm [9]: 0 to 25% | pest or weed control at 25 ppm [10]: 0 to 25% | pest or weed control at 25 ppm [11]: 0 to 25% | pest or weed control at 100 ppm [12]: 0 to 25%

Cc1nn(C)c2sc(COc3ncc(F)c(N)n3)cc12 [Compound 132]
pest or weed control at 25 ppm [5]: 76 to 100% | pest or weed control at 100 ppm [6]: 76 to 100% | pest or weed control at 25 ppm [7]: 76 to 100% | pest or weed control at 100 ppm [8]: 76 to 100%

Fc1cnc(OC2CCCCC2)nc1NCCc1ccccc1 [Compound 837]
pest or weed control at 50 ppm (24 h, one day protectant): 0 to 25% | pest or weed control at 200 ppm (24 h, one day protectant): 0 to 25%

COc1cccc(COc2ncc(F)c(N/N=C/c3nc(C)cs3)n2)c1 [Compound 603]
pest or weed control at 25 ppm [1]: 26 to 50% | pest or weed control at 100 ppm [2]: 76 to 100% | pest or weed control at 25 ppm [3]: 0 to 25% | pest or weed control at 100 ppm [4]: 0 to 25%

Fc1cnc(OCc2ccc(Cl)cc2)nc1NCc1ccc(Cl)cc1 [Compound 816]
pest or weed control at 50 ppm (24 h, one day protectant): 76 to 100% | pest or weed control at 200 ppm (24 h, one day protectant): 76 to 100%

Fc1ccccc1CNc1nc(OCc2ccccc2F)ncc1F [Compound 809]
pest or weed control at 50 ppm (24 h, one day protectant): 51 to 75% | pest or weed control at 200 ppm (24 h, one day protectant): 76 to 100%

CN(Cc1ccc(Cl)cc1)c1nc(O)ncc1F [Compound 1068]
pest or weed control at 25 ppm [9]: 0 to 25% | pest or weed control at 25 ppm [10]: 0 to 25% | pest or weed control at 25 ppm [11]: 0 to 25% | pest or weed control at 100 ppm [12]: 0 to 25%

Nc1nc(OCc2snc(Cl)c2Cl)ncc1F [Compound 442]
pest or weed control at 25 ppm [13]: 76 to 100% | pest or weed control at 100 ppm [14]: 76 to 100% | pest or weed control at 25 ppm [15]: 76 to 100% | pest or weed control at 100 ppm [16]: 76 to 100%

Cc1ccc(COc2ncc(F)c(N(N)c3ccccc3)n2)cc1 [Compound 102]
pest or weed control at 25 ppm [5]: 0 to 25% | pest or weed control at 100 ppm [6]: 0 to 25% | pest or weed control at 25 ppm [7]: 0 to 25% | pest or weed control at 100 ppm [8]: 26 to 50%

Cc1csc(COc2ncc(F)c(N)n2)c1 [Compound 577]
pest or weed control at 25 ppm [1]: 76 to 100% | pest or weed control at 100 ppm [2]: 76 to 100% | pest or weed control at 25 ppm [3]: 76 to 100% | pest or weed control at 100 ppm [4]: 76 to 100%

Cc1ccc(COc2ncc(F)c(NNC3CCCCC3)n2)cc1 [Compound 701]
pest or weed control at 25 ppm [1]: 0 to 25% | pest or weed control at 100 ppm [2]: 76 to 100% | pest or weed control at 25 ppm [3]: 0 to 25% | pest or weed control at 100 ppm [4]: 76 to 100%

NNc1nc(OCc2ccccc2)ncc1F [Compound 258]
pest or weed control at 25 ppm [13]: 51 to 75% | pest or weed control at 100 ppm [14]: 76 to 100% | pest or weed control at 25 ppm [15]: 26 to 50% | pest or weed control at 100 ppm [16]: 51 to 75%

CC(Oc1ncc(F)c(N)n1)c1cc(Cl)c(Cl)cc1Cl (centres unmarked) [Compound 502]
pest or weed control at 25 ppm [13]: 0 to 25% | pest or weed control at 100 ppm [14]: 0 to 25% | pest or weed control at 25 ppm [15]: 0 to 25% | pest or weed control at 100 ppm [16]: 0 to 25%

C=CCOC(=O)Nc1nc(OCc2ccc(F)cc2)ncc1F [Compound 985]
pest or weed control at 25 ppm [9]: 76 to 100% | pest or weed control at 25 ppm [10]: 76 to 100% | pest or weed control at 25 ppm [11]: 76 to 100% | pest or weed control at 100 ppm [12]: 76 to 100%

CC(=O)Nc1nc(OCc2cccs2)ncc1F [Compound 6, N-[5-Fluoro-2-(thiophen-2-ylmethoxy)pyrimidin-4-yl]acetamide]
pest or weed control at 25 ppm [5]: 76 to 100% | pest or weed control at 100 ppm [6]: 76 to 100% | pest or weed control at 25 ppm [7]: 76 to 100% | pest or weed control at 100 ppm [8]: 76 to 100%

COc1ccc(COc2ncc(F)c(NCc3ccc(Cl)cc3)n2)cc1 [Compound 929]
pest or weed control at 50 ppm (24 h, one day protectant): 51 to 75% | pest or weed control at 200 ppm (24 h, one day protectant): 76 to 100%
